Experiments:
Carboplatin = compound: C1CC(C1)(C(=O)[O-])C(=O)[O-].N.N.[Pt+2] [Carboplatin]; settings: max 10 µM
Outline: (§1)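 Cancer cell lines were plated in 1536-well plates in 7.5 μl of DMEM/F12 or RPMI with 10% FBS and kept 24 hours at 37°C and 5% CO2 before 72 hours of dosing, with final DMSO typically 0.2%. CellTiter-Glo 2.0 luminescence measured viability, scaled between blank-well and DMSO-well means. Dose responses were fitted to a two-parameter logistic curve with a non-linear mixed effects model. This fit gives the single-agent IC50.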

AZD5363 = compound: C1CN(CCC1(C(=O)N[C@@H](CCO)C2=CC=C(C=C2)Cl)N)C3=NC=NC4=C3C=CN4 [AZD5363]; settings: max 10 µM
Outline: as §1

AZD1775 = compound: C=CCn1c(=O)c2cnc(Nc3ccc(N4CCN(C)CC4)cc3)nc2n1-c1cccc(C(C)(C)O)n1 [AZD1775]; settings: max 3 µM
Outline: as §1

Trametinib = compound: CC(=O)Nc1cccc(-n2c(=O)n(C3CC3)c(=O)c3c(Nc4ccc(I)cc4F)n(C)c(=O)c(C)c32)c1 [Trametinib]; settings: max 1 µM
Outline: as §1

Paclitaxel = compound: CC(=O)O[C@H]1C(=O)[C@@]2(C)[C@H]([C@H](OC(=O)c3ccccc3)[C@]3(O)C[C@H](OC(=O)[C@H](O)[C@@H](NC(=O)c4ccccc4)c4ccccc4)C(C)=C1C3(C)C)[C@]1(OC(C)=O)CO[C@@H]1C[C@@H]2O [Paclitaxel]; settings: max 3 µM
Outline: as §1

Palbociclib = compound: CC(=O)c1c(C)c2cnc(Nc3ccc(N4CCNCC4)cn3)nc2n(C2CCCC2)c1=O [Palbociclib]; settings: max 10 µM
Outline: as §1

AZD1390 = compound: CC(C)n1c(=O)n(C)c2cnc3cc(F)c(-c4ccc(OCCCN5CCCCC5)nc4)cc3c21 [AZD1390]; settings: max 0.3 µM
Outline: as §1

Venetoclax = compound: CC1(C)CCC(CN2CCN(c3ccc(C(=O)NS(=O)(=O)c4ccc(NCC5CCOCC5)c([N+](=O)[O-])c4)c(Oc4cnc5[nH]ccc5c4)c3)CC2)=C(c2ccc(Cl)cc2)C1 [Venetoclax]; settings: max 1 µM
Outline: as §1

Dasatinib = compound: CC1=C(C(=CC=C1)Cl)NC(=O)C2=CN=C(S2)NC3=CC(=NC(=N3)C)N4CCN(CC4)CCO [Dasatinib]; settings: max 2 µM
Outline: as §1

SG3199 = compound: CC1=CN2[C@@H](C1)C=NC3=CC(=C(C=C3C2=O)OC)OCCCCCOC4=C(C=C5C(=C4)N=C[C@@H]6CC(=CN6C5=O)C)OC [SG3199]; settings: max 0.001 µM
Outline: as §1

AZD2811 = compound: CCN(CCO)CCCOc1ccc2c(Nc3cc(CC(=O)Nc4cccc(F)c4)[nH]n3)ncnc2c1 [AZD2811]; settings: max 1 µM
Outline: as §1

SN-38 = compound: CCc1c2c(nc3ccc(O)cc13)-c1cc3c(c(=O)n1C2)COC(=O)[C@]3(O)CC [SN-38]; settings: max 0.3 µM
Outline: as §1

AZD0156 = compound: CN(C)CCCOc1ccc(-c2ccc3ncc4c(c3c2)n(C2CCOCC2)c(=O)n4C)cn1 [AZD0156]; settings: max 3 µM
Outline: as §1

AZD4320 = compound: CN(CC[C@H](CSC1=CC=CC=C1)NC2=C(C=C(C=C2)S(=O)(=O)NC(=O)C3=CC=C(C=C3)N4CCC(CC4)[C@H](C5=CC=CC=C5C6=CC=C(C=C6)Cl)O)S(=O)(=O)C(F)(F)F)CCO [AZD4320]; settings: max 1 µM
Outline: as §1

Alisertib = compound: COc1cc(Nc2ncc3c(n2)-c2ccc(Cl)cc2C(c2c(F)cccc2OC)=NC3)ccc1C(=O)O [Alisertib]; settings: max 10 µM
Outline: as §1

Etoposide = compound: COc1cc([C@@H]2c3cc4c(cc3[C@@H](O[C@@H]3O[C@@H]5CO[C@@H](C)O[C@H]5[C@H](O)[C@H]3O)[C@H]3COC(=O)[C@H]23)OCO4)cc(OC)c1O [Etoposide]; settings: max 10 µM
Outline: as §1

Gefitinib = compound: COc1cc2ncnc(Nc3ccc(F)c(Cl)c3)c2cc1OCCCN1CCOCC1 [Gefitinib]; settings: max 10 µM
Outline: as §1

Prexasertib = compound: COc1cccc(OCCCN)c1-c1cc(Nc2cnc(C#N)cn2)n[nH]1 [Prexasertib]; settings: max 1 µM
Outline: as §1

Doxorubicin = compound: COc1cccc2c1C(=O)c1c(O)c3c(c(O)c1C2=O)C[C@@](O)(C(=O)CO)C[C@@H]3O[C@H]1C[C@H](N)[C@H](O)[C@H](C)O1 [Doxorubicin]; settings: max 1 µM
Outline: as §1

AZD5153 = compound: COc1nnc2ccc(N3CCC(c4ccc(OCCN5CCN(C)C(=O)[C@H]5C)cc4)CC3)nn12 [AZD5153]; settings: max 1 µM
Outline: as §1

Lapatinib = compound: CS(=O)(=O)CCNCc1ccc(-c2ccc3ncnc(Nc4ccc(OCc5cccc(F)c5)c(Cl)c4)c3c2)o1 [Lapatinib]; settings: max 10 µM
Outline: as §1

AZD8186 = compound: C[C@@H](Nc1cc(F)cc(F)c1)c1cc(C(=O)N(C)C)cc2c(=O)cc(N3CCOCC3)oc12 [AZD8186]; settings: max 10 µM
Outline: as §1

Crizotinib = compound: C[C@@H](Oc1cc(-c2cnn(C3CCNCC3)c2)cnc1N)c1c(Cl)ccc(F)c1Cl [Crizotinib]; settings: max 10 µM
Outline: as §1

Savolitinib = compound: C[C@@H](c1ccc2nccn2c1)n1nnc2ncc(-c3cnn(C)c3)nc21 [Savolitinib]; settings: max 1 µM
Outline: as §1

AZD6738 = compound: C[C@@H]1COCCN1C2=NC(=NC(=C2)C3(CC3)[S@](=N)(=O)C)C4=C5C=CNC5=NC=C4 [AZD6738]; settings: max 10 µM
Outline: as §1

AZD5991 = compound: Cc1c2c(nn1C)CSCc1cc(n(C)n1)CSc1cc(c3ccccc3c1)OCCCc1c(C(=O)O)n(C)c3c-2c(Cl)ccc13 [AZD5991]; settings: max 1 µM
Outline: as §1

AZD7648 = compound: Cc1cc2ncnn2cc1Nc1ncc2c(n1)n(C1CCOCC1)c(=O)n2C [AZD7648]; settings: max 10 µM
Outline: as §1

Taselisib = compound: Cc1nc(-c2cn3c(n2)-c2ccc(-c4cnn(C(C)(C)C(N)=O)c4)cc2OCC3)n(C(C)C)n1 [Taselisib]; settings: max 10 µM
Outline: as §1

Selumetinib = compound: Cn1cnc2c(F)c(Nc3ccc(Br)cc3Cl)c(C(=O)NOCCO)cc21 [Selumetinib]; settings: max 10 µM
Outline: as §1

SRA737 = compound: N#Cc1cnc(Nc2cc(NC[C@H]3CNCCO3)c(C(F)(F)F)cn2)cn1 [SRA737]; settings: max 10 µM
Outline: as §1

MK-2206 = compound: NC1(c2ccc(-c3nc4ccn5c(=O)[nH]nc5c4cc3-c3ccccc3)cc2)CCC1 [MK-2206]; settings: max 10 µM
Outline: as §1

Gemcitabine = compound: Nc1ccn([C@@H]2O[C@H](CO)[C@@H](O)C2(F)F)c(=O)n1 [Gemcitabine]; settings: max 0.3 µM
Outline: as §1

[1] = compound: O=C(Nc1ccc2[nH]nc(-c3ccncc3)c2c1)[C@@H]1CCN(CC(=O)N2CCN(c3ccc(-c4ncccn4)cc3)CC2)C1; settings: max 5 µM
Outline: as §1

Olaparib = compound: O=C(c1cc(Cc2n[nH]c(=O)c3ccccc23)ccc1F)N1CCN(C(=O)C2CC2)CC1 [Olaparib]; settings: max 10 µM
Outline: as §1

5-Fluorouracil = compound: O=c1[nH]cc(F)c(=O)[nH]1 [5-Fluorouracil]; settings: max 20 µM
Outline: as §1

## SK-PN-DW (Other Solid Carcinomas)
Carboplatin
  IC50, cell viability 72 h: > 10000 nM
AZD5363
  IC50, cell viability 72 h: 4780 nM
AZD1775
  IC50, cell viability 72 h: 1590 nM
Trametinib
  IC50, cell viability 72 h: > 1000 nM
Paclitaxel
  IC50, cell viability 72 h: 11 nM
Palbociclib
  IC50, cell viability 72 h: > 10000 nM
AZD1390
  IC50, cell viability 72 h: > 300 nM
Venetoclax
  IC50, cell viability 72 h: 757 nM
Dasatinib
  IC50, cell viability 72 h: > 2000 nM
SG3199
  IC50, cell viability 72 h: > 1 nM
AZD2811
  IC50, cell viability 72 h: 191 nM
SN-38
  IC50, cell viability 72 h: 4.05 nM
AZD0156
  IC50, cell viability 72 h: > 3000 nM
AZD4320
  IC50, cell viability 72 h: > 1000 nM
Alisertib
  IC50, cell viability 72 h: 119 nM
Etoposide
  IC50, cell viability 72 h: 1530 nM
Gefitinib
  IC50, cell viability 72 h: > 10000 nM
Prexasertib
  IC50, cell viability 72 h: 5.83 nM
Doxorubicin
  IC50, cell viability 72 h: 199 nM
AZD5153
  IC50, cell viability 72 h: 562 nM
Lapatinib
  IC50, cell viability 72 h: > 10000 nM
AZD8186
  IC50, cell viability 72 h: > 10000 nM
Crizotinib
  IC50, cell viability 72 h: 4410 nM
Savolitinib
  IC50, cell viability 72 h: > 1000 nM
AZD6738
  IC50, cell viability 72 h: 558 nM
AZD5991
  IC50, cell viability 72 h: 70 nM
AZD7648
  IC50, cell viability 72 h: > 10000 nM
Taselisib
  IC50, cell viability 72 h: 4420 nM
Selumetinib
  IC50, cell viability 72 h: > 10000 nM
SRA737
  IC50, cell viability 72 h: 986 nM
MK-2206
  IC50, cell viability 72 h: > 10000 nM
Gemcitabine
  IC50, cell viability 72 h: > 300 nM
[1]
  IC50, cell viability 72 h: > 5000 nM
Olaparib
  IC50, cell viability 72 h: > 10000 nM
5-Fluorouracil
  IC50, cell viability 72 h: 5010 nM
